Results from US20230212222A1 (ANYGEN CO., LTD., priority 2020, published 2023).

How the values were obtained:
GPR39 [1] = biological target: T1, GPR39 (Homo sapiens, UniProt O43194); test: calcium influx assay system (aequorin) in CV-1 cells; type: cell-based; set-up: host or cells: CV-1 fibroblast cell line, lipofectamine transfection; conditions: CV-1 cells transfected with human GPR39, Gαq, 6 hours
T1 sequence (O43194 1-453): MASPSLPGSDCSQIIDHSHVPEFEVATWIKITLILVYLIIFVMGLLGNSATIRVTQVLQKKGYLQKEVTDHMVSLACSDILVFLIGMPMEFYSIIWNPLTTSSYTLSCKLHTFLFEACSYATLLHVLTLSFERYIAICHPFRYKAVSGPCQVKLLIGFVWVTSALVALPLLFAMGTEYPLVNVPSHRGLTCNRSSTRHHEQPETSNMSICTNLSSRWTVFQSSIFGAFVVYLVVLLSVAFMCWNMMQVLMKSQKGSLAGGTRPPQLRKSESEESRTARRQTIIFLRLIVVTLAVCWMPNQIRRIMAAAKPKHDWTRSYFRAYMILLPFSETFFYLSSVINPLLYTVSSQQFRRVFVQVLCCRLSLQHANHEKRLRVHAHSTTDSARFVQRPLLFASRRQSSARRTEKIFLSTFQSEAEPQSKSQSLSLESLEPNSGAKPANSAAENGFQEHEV

db/db mice [2] = test: drop in blood glucose level in mouse model of diabetes mellitus disease; type: in vivo
Protocol: The drop in blood glucose level in a mouse model of diabetes mellitus disease according to the HKFY derivative treatment was analyzed (FIG. 92).
Specifically, HKFY-34 was subcutaneously administered at a concentration of 0.5, 1, 5 and 10 mg/kg, respectively, to male db/db mice (5 to 7-week-old), which is a mouse model of diabetes mellitus disease. After 0, 1, 2, 4, 6, 8, 12, 18 and 24 hours, blood was collected from the tail of the mice, and the blood glucose was measured with a blood glucose meter (acc-check, Roche, Germany) to confirm the anti-diabetic effect.

GPR39 [3] = biological target: T1, GPR39; test: luciferase assay system (SRE luciferase reporter gene) for GPR39 in CV-1 cells
Protocol: (§3) Specifically, the fibroblast cell line CV-1 (1×10^5 cells/ml, Korea Cell Line Bank) was cultured in a 96 well cell culture plate for 24 hours, and then treated with GPR39 inserted into adenovirus and SRE (serum response element) luciferase at 50 MOI (multiplicity of infection) and 25 MOI virus for 3 hours, respectively, and then cultured for 24 hours.

[4] = system: INS-1, a rat insulinoma cell; test: glucose-dependent insulin secretion ability test in INS-1 (rat insulin ELISA); type: cell-based
Protocol: In this regard, in order to confirm the effect of the HKFY derivative, a candidate GPR39 agonist, on insulin secretion ability, a glucose-dependent insulin secretion ability test was performed in INS-1 (Korea Cell Line Bank), a rat insulinoma cell (FIG. 75).
Specifically, when INS-1 cells were treated with 1 or 10 μM of HKFY-34 in 2.8 mM glucose similar to a physiological blood glucose level or 11.1 mM glucose, a high blood glucose level, the insulin secretion ability was confirmed using a rat insulin ELISA.
In addition, through GPR39 knock-down experiment using GPR39 siRNA, it was confirmed that HKFY-34 enhances insulin secretion through the GPR39 receptor.

[5] = system: C57BL6/J mice with high-fat feed (DIO); test: insulin level in mouse model of obesity disease (DIO); type: in vivo; conditions: FIG. 90
Protocol: (§1) In addition, the glucose tolerance level and insulin level according to HKFY-34 treatment in a mouse model of obesity disease were analyzed (FIGS. 89 and 90).
(§2) Specifically, in the glucose tolerance level and insulin level analysis experiment, the experiment was performed by changing the mouse model of diabetes mellitus disease into a mouse model of obesity disease (DIO), in which obesity was induced by providing male C57BL6/J mice (6 to 7-week-old, Central Lab. Animal Inc.) with a high-fat feed (60% fat chow) for 5-6 weeks.

[6] = system: adipose tissue (white adipose tissue, WAT); test: lipolytic ability (secreted glycerol) in adipose tissue (WAT); type: cell-based, mice
Protocol: In addition, lipolytic ability according to the HKFY-34 treatment by concentration (100 nM, 500 nM, […] (FIG. 84). When the signal of lipolysis is transmitted, lipid droplet glycerol and free fatty acid in adipocytes are secreted as final products and come out of the cell. At this time, the degree of lipolysis can be confirmed by quantifying the secreted glycerol. Isoproterenol, a positive control group, is an agonist of β-adrenergic receptors and mainly promotes lipolytic ability in adipocytes.

db/db mice [7] = test: glucose tolerance test in mouse model of diabetes mellitus disease; type: in vivo; conditions: db/db mice, 0.5, 1, 5 and 10 mg/kg subcutaneously, glucose 1.5 g/kg i.p. after 30 minutes
Protocol: The glucose tolerance level in a mouse model of diabetes mellitus disease according to the HKFY derivative treatment was analyzed (FIG. 87).
Specifically, male db/db mice (5 to 7-week-old, Central Lab. Animal Inc.), which is a mouse model of diabetes mellitus disease, were fasted for 16 hours, and then HKFY-34 was administered subcutaneously at a concentration of 0.5, 1, 5 and 10 mg/kg, respectively. After 30 minutes, glucose (1.5 g/kg) was intraperitoneally administered. After 0, 15, 30, 45, 60, 90, 120 and 180 minutes, blood was collected from the tail of the mice, and the blood glucose was measured with a blood glucose meter (acc-check, Roche, Germany) to analyze the glucose tolerance.

GPR39 [8] = biological target: T1, GPR39
Protocol: as §3

[9] = system: C57BL6/J mice with high-fat feed (DIO); test: glucose tolerance test in mouse model of obesity disease (DIO); type: in vivo; conditions: FIG. 89
Protocol: as §1, §2

[10] = system: HSL, ATGL and Perilipin A in WAT cells; test: mRNA expression of lipolysis signaling factors by RT-PCR in WAT; type: cell-based, mice; conditions: versus isoproterenol positive control
Protocol: In addition, the mRNA expression levels of HSL (hormone-sensitive lipase), ATGL (adipose triglyceride lipase) and Perilipin A, which are important factors for lipolysis signaling according to HKFY-34 treatment, were analyzed through RT-PCR (FIG. 79). […] In addition, it was confirmed that the mRNA expression of all factors was enhanced due to GPR39 through GPR39 siRNA (FIGS. 81 to 83).

In the case of `CCCCCCCC(=O)NCCCC[C@H](NC(=O)[C@@H](N)Cc1cn(C(c2ccccc2)c2ccccc2)cn1)C(=O)N[C@H](Cc1ccc(C)cc1)C(=O)N[C@@H](Cc1ccc(O)cc1)C(=O)O` [HKFY-34, ((R)-2-((S)-2-((S)-2-amino-3-(1-benzhydryl-1H-imidazol-4-yl)propanamido)-6-octanamidohexanamido)-3-(p-tolyl)propanoyl)-L-tyrosine], the “Ca2+ influx assay ECmax (-fold induction over basal)” value (GPR39 [1]) is reported as 2.4 ± 4.59 -fold induction over basal, the EC50 (GPR39 [1]; read-out: Ca2+ influx assay EC50) is reported as 2.7 ± 0.5 nM and the “effect of drop in blood glucose level” value (db/db mice [2]; db/db mice, 0.5, 1, 5 and 10 mg/kg subcutaneously, 0 to 24 hours) is reported as “exhibited in a concentration-dependent manner”. The “effect of drop in blood glucose” value (db/db mice [2]; db/db mice, 5 and 10 mg/kg) was “significantly increased”, the EC50 (GPR39 [3]; EC50, CV-1 cells, GPR39 and SRE luciferase adenovirus, treated 6 hours, luminometer) was 7 ± 1 nM and the “binding capacity and activity to the GPR39 receptor (in words)” value (GPR39 [3]; FIG. 73 and Table 4, luciferase and calcium influx assay) was “excellent”. The EC50 (GPR39 [3]; Reporter gene assay EC50, Table 4, luciferase assay system) was 6.7 ± 0.7 nM, the “ECmax value (in words)” value (GPR39 [3]; comment on Table 3) was “high ECmax value” and the “activity level for GPR39 (in words)” value (GPR39 [3]; comment on Table 3) was “higher activity level than other HJKFY derivatives”. For the same compound, the “activity level for GPR39 (in words)” value (GPR39 [3]; comment on Table 3, listed as HIKFY-34) was “most excellent activity”, the insulin secretion ([4]; INS-1, high blood glucose level (11.1 mM glucose), 1 or 10 μM) was “enhanced at all treatment concentrations” and the “change in insulin secretion level” value ([4]; INS-1, low blood glucose level (2.8 mM glucose), 1 or 10 μM) was “insignificant”. The insulin secretion ability ([4]; cells treated with GPR39 siRNA compared to scrambled siRNA, 11.1 mM glucose) was “not increased”, the insulin secretion level [5] was “increased” and the lipolytic ability ([6]; HKFY-34 concentration 10 μM or higher) was “significantly increased”. The lipolytic ability ([6]; by concentration, FIG. 84) was “increased in a concentration dependent manner”, the glucose tolerance (db/db mice [7]) was “significant glucose tolerance in a concentration dependent manner” and the “ECmax (-fold induction over basal)” value (GPR39 [8]) was 22.39 ± 4.59 -fold induction over basal. For the same compound, the “Reporter gene assay ECmax (-fold induction over basal)” value (GPR39 [8]) was 22.39 ± 4.59 -fold induction over basal, the glucose tolerance [9] was “glucose tolerance in a concentration dependent manner” and the “mRNA expression of ATGL” value [10] was “increased to a degree similar to that of isoproterenol”. The “mRNA expression of HSL” value [10] was “increased to a degree similar to that of isoproterenol” and the “mRNA expression of Perilipin A” value [10] was “increased to a degree similar to that of isoproterenol”.
